Positions of bridges follow the written chain, without caps; N, C: chain ends. Non-standard residues stand in square brackets, D forms with d. Residues, ends and D or L forms follow the SMILES beside them. Chains are numbered I, II in the order given. ξ: configuration not given here. *: point of attachment. S(3-COOH-4-NO2-phenyl) = O=C(O)c1cc(S*)ccc1[N+](=O)[O-]; C16 diacid = O=C(O)CCCCCCCCCCCCCCC(=O)*; Thr(3ξ) = CC(O)[C@H](N)C(=O)O; ξP = O=C(O)C1CCCN1
How the values were obtained:
[1] = target: Human immunodeficiency virus type 1 protease (Human immunodeficiency virus 1) (UniProt Q72874); assay: Maximal inactivation rate of compound tested against HIV-1 protease
[2] = target: Human immunodeficiency virus type 1 protease (Human immunodeficiency virus 1) (UniProt Q72874); assay: Inhibitory concentration of compound resulting in half-maximal inactivation of HIV-1 protease

For `CC[C@H](C)[C@H](NC(=O)[C@H](CCC(N)=O)NC(=O)C1CCCN1C(=O)CCCCCCCCCCCCCCC(=O)N[C@@H](CO)C(=O)N[C@H](C(=O)N[C@@H](CC(C)C)C(=O)N[C@@H](CC(N)=O)C(=O)N[C@@H](CSSc1ccc([N+](=O)[O-])c(C(=O)O)c1)C(=O)O)[C@@H](C)O)C(=O)N[C@H](C(=O)N[C@@H](CC(C)C)C(=O)N[C@@H](Cc1c[nH]c2ccccc12)C(=O)O)C(C)O` (some centres not stated) (I: [ξP]QI[Thr(3ξ)]LW-OH / II: STLNC(S(3-COOH-4-NO2-phenyl))-OH; linker I:N-II:N via C16 diacid), the Vinact [1] was 0.012 min⁻¹ and the K inact [2] was 3.7 µM.
